Source: the COVID Moonshot data (paper PMC7615835)
Values joined by “and” are separate entries in the source; they are usually repeats but may differ in a detail not shown here. Equal values may be shown once.

Each compound was assayed against SARS-CoV-2 Main Protease (SARS-CoV-2) (UniProt P0DTD1).

| Structure (SMILES) | IC50 |
| --- | --- |
| Cc1ccc2nc(Nc3cc(Cl)cc(CC(=O)Nc4cncc5ccccc45)c3)sc2c1 | 22.9 µM |
| C[C@H]1C[C@@H](C(=O)Nc2cncc3ccccc23)c2cc(Cl)ccc2O1 (stereo in doubt) | 20.1 µM |
| CN(C)C(=O)C[C@@]1(C(=O)Nc2cncc3ccccc23)CCOc2ccc(Cl)cc21 (stereo in doubt) | 20.5 µM |
| O=C(Cc1cc(Cl)cc(OC(F)(F)F)c1)Nc1cncc2ccccc12 | 1.55 µM |
| O=C1NC(c2ccc(Cl)c(Cl)c2)C(=O)N1c1cncc2ccccc12 (stereo not given) | 8.46 µM |
| COc1ccccc1OC(C)CNC(=O)c1cc(=O)[nH]c2cc(F)ccc12 (stereo not given) | > 99.5 µM |
| CNC(=O)CN1CC(C(=O)Nc2cncc3cc(NS(C)(=O)=O)ccc23)c2cc(Cl)ccc2C1=O (stereo not given) | < 0.05 µM and 0.0442 µM |
| C=CC(=O)N(c1ccc(C(F)(F)F)cc1)C(C(=O)NCCc1cccc(F)c1)c1cncc(C)c1 (stereo not given) | 24.3 µM |
| COc1cc(Nc2cc(Cl)cc(CC(=O)Nc3cncc4ccccc34)c2)ccc1Br | 1.89 µM |
| O=C(Cc1cc(Cl)cc(Nc2ccc([N+](=O)[O-])cc2Cl)c1)Nc1cncc2ccccc12 | 2.18 µM |
| CS(=O)(=O)Cc1ccc(N(C(=O)c2cocn2)C(C(=O)NCCc2cccc(F)c2)c2cccnc2)cc1 (stereo not given) | 27.7 µM |
| CC(C)(C)c1ccc(N(C(=O)c2ccc(O)c(=O)o2)C(C(=O)NCCc2cccc(F)c2)c2cccnc2)cc1 (stereo not given) | 76.5 µM |
| O=C(Cc1cc(Cl)cc(NC(c2ccccc2)c2ccccc2)c1)Nc1cncc2ccccc12 | 3.36 µM |
| O=C(Cc1cc(Cl)cc(Nc2nc(Cl)nc3nc[nH]c23)c1)Nc1cncc2ccccc12 | 2.37 µM |
| CC(C)(C)c1ccc(N(C(=O)c2cocn2)C(C(=O)NCCc2cccc(F)c2)c2ccc[nH]c2=O)cc1 (stereo not given) | > 99.5 µM |
| O=C(Cc1cc(Cl)cc(Nc2cccc(F)c2[N+](=O)[O-])c1)Nc1cncc2ccccc12 | 1.99 µM |
| O=C(Cc1cc(Cl)cc(N2CCN(Cc3ccc(C(F)(F)F)cc3)CC2)c1)Nc1cncc2ccccc12 | 4.28 µM |
| O=C(Nc1cncc2ccccc12)[C@@H]1COc2ccc(Cl)cc21 (stereo in doubt) | 0.529 µM and 0.67 µM and 0.483 µM |
| CC(C)(C)c1ccc(N(C(=O)c2ccon2)C(C(=O)NCCc2cccc(F)c2)c2cccnc2)cc1 (stereo not given) | 4.26 µM |
| Cc1nc2ccc(NC(=O)Cn3ncn4nccc4c3=O)cc2s1 | > 99.5 µM |
| O=C(Cc1cc(Cl)cc(Nc2cccc(C(F)(F)F)n2)c1)Nc1cncc2ccccc12 | 2.13 µM |
| C=CC(=O)NCC(=O)N(Cc1ccccc1)C[C@H](O)c1cccs1 (stereo in doubt) | > 99.5 µM |
| CNS(=O)(=O)N1CCc2ccc(Cl)cc2C1C(=O)Nc1cncc2ccccc12 (stereo not given) | 1.55 µM |
| CC1(CS(=O)(=O)N2Cc3ccc(Cl)cc3C(C(=O)Nc3cncc4cc(S(C)(=O)=O)ccc34)C2)CS(=O)(=O)C1 (stereo not given) | 0.0836 µM and 0.147 µM |

| Structure (SMILES) | IC50 |
| --- | --- |
| O=C(Nc1cncc2ccccc12)C1CN(S(=O)(=O)CC2CC2)Cc2ccc(Cl)cc21 (stereo not given) | 0.168 µM |
| CC1(C(=O)Nc2cncc3cc(S(C)(=O)=O)ccc23)CNS(=O)(=O)c2ccc(Cl)cc21 (stereo not given) | 0.172 µM |
| O=C(Cc1cc(Cl)cc(N2CCc3ccccc3[C@H]2c2ccccc2)c1)Nc1cncc2ccccc12 (stereo in doubt) | 2.78 µM |
| COc1ccccc1OCCNC(=O)c1cc(=O)[nH]c2cc(F)ccc12 | > 99.5 µM |
| CC(C)Sc1ccccc1Nc1cc(Cl)cc(CC(=O)Nc2cncc3ccccc23)c1 | 2.01 µM |
| C=CS(=O)(=O)N1CCN(S(=O)(=O)c2ccccc2)CC1 | > 99.5 µM |
| C=CC(=O)N(c1ccc(C(F)(F)F)cc1)C(C(=O)Nc1c(C)cccc1CC)c1cccnc1 (stereo not given) | 97.8 µM |
| CC(Cc1nc2ccccc2s1)Nc1ccc2nnnn2n1 (stereo not given) | > 99.5 µM |
| O=C(CCl)N1CCCN(S(=O)(=O)c2ccccc2F)CC1 | 15.6 µM |
| C[C@H](C(=O)Nc1cncnc1)c1ccccc1 (stereo in doubt) | > 99.5 µM |
| COc1cc(N(C(=O)c2cnc[nH]2)C(C(=O)NCCc2cccc(F)c2)c2cccnc2)ccc1S(=O)(=O)N(C)C (stereo not given) | > 99 µM |
| C#CCCCC(=O)N[C@@H](CC)C(=O)N[C@H](C(=O)N[C@@H](CC(C)C)C(=O)N[C@@H](CCC(=O)N(C)C)C(=O)COC(=O)c1c(C)cccc1C)C(C)(C)C (stereo in doubt) | 5.77 µM and 5.83 µM |
| Cc1ccc(Nc2cc(Cl)cc(CC(=O)Nc3cncc4ccccc34)c2)cc1Br | 2.07 µM |
| CC(=O)N1CCN(CC(=O)Nc2cncc3ccccc23)CC1 | > 99.5 µM and 51.7 µM |
| Cc1ccc(S(=O)(=O)N2CCN(C(=O)CCl)CC2)cc1 | 21 µM |
| CCC(c1ccncc1)N(C)C(=O)Cc1c[nH]c2ncccc12 (stereo not given) | > 99.5 µM |
| CCS(=O)(=O)Nc1ccc2cncc(NC(=O)Cc3cccc(Cl)c3)c2c1 | 1.02 µM |
| O=C(Nc1[nH]nc2cccnc12)C1CCOc2ccc(Cl)cc21 (stereo not given) | > 99.5 µM |
| Cc1cc(C(F)(F)F)nc2c1c(N)nn2C(=O)Cc1cccc(Cl)c1 | > 99.5 µM |
| O=C(NC1N=Nc2ccccc21)C1CCOc2ccc(Cl)cc21 (stereo not given) | > 99.5 µM |
| Cc1cc(O)cc(C)c1C[C@H](NC(=O)[C@H](N)CCCNC(=N)N)C(=O)N[C@@H](CCCCN)C(=O)N[C@@H](Cc1ccccc1)C(N)=O (stereo in doubt) | > 99 µM |
| N#CC1(CS(=O)(=O)NCc2ccc(Cl)cc2CC(=O)Nc2cncc3ccccc23)CC1 | 0.133 µM |
| CCNC(=O)CN1CC(C(=O)Nc2cncc3cc(F)ccc23)c2cc(Cl)ccc2C1=O (stereo not given) | 0.161 µM |
| Cc1ccncc1NC(=O)N(Cc1ccccc1)c1cccc(Cl)c1 | 22.9 µM |

| Structure (SMILES) | IC50 |
| --- | --- |
| COC[C@]1(C(=O)Nc2cncc3ccccc23)CCOc2cc(Cl)c(Cl)cc21 (stereo in doubt) | 2.38 µM and 4.36 µM |
| O=C1NCC(C(=O)Nc2cncc3ccccc23)c2cc(F)cc(F)c21 (stereo not given) | 1.73 µM |
| O=C(Nc1ccc(F)cc1)[C@@H](c1ccccc1)N1Cc2ccccc2C1=O (stereo in doubt) | > 99.5 µM |
| O=C(NCC1=[SH]C=CC1)[C@@H](c1ccccc1)N1Cc2ccccc2C1=O (stereo in doubt) | > 99.5 µM |
| Cc1cc(N)ncc1NC(=O)C1CCOc2ccc(Cl)cc21 (stereo not given) | > 99.5 µM |
| Cc1ccncc1NC(=O)Cc1cc(Cl)cc(-c2ccc(S(C)(=O)=O)cc2Cl)c1 | > 99.5 µM |
| COc1cc(Nc2cc(Cl)cc(CC(=O)Nc3cncc4ccccc34)c2)nc(OC)n1 | 2.21 µM |
| CNC(=O)C1(CC(=O)Nc2cncc3ccccc23)CCOc2ccc(Cl)cc21 (stereo not given) | 30.7 µM |
| C=CC(=O)N(c1ccc(C(C)(C)C)cc1)C(C(=O)NCC1CCCO1)c1cccnc1 (stereo not given) | 90.5 µM |
| O=C(CCl)N1CCN(Cc2cc(O)ccc2O)CC1 | 37.4 µM |
| O=C(Nc1cncc2ccccc12)C1CN(CC(F)(F)F)Cc2ccc(Cl)cc21 (stereo not given) | 3.41 µM |
| O=C(NCCO)c1ccc(N(C(=O)c2cocn2)C(C(=O)NCCc2cccc(F)c2)c2cccnc2)cc1 (stereo not given) | > 99.5 µM |
| Cc1ccccc1C(C)N(C(=O)c1cnc[nH]1)C(C(=O)NCCc1cccc(F)c1)c1cccnc1 (stereo not given) | > 99 µM |
| O=C(Cc1cc(Cl)cc(Nc2nc3cc(Cl)ccc3s2)c1)Nc1cncc2ccccc12 | 2.04 µM |
| O=C(Nc1cncc2ccccc12)C1(CO)CCOc2ccc(Cl)cc21 (stereo not given) | 1.09 µM |
| O=C(O)CN1C(=O)C(=O)c2cc([N+](=O)[O-])ccc21 | > 99.5 µM |
| C[C@H](C(=O)O)C(=O)SCCNC(=O)CCNC(=O)[C@H](O)C(C)(C)COP(=O)(O)OP(=O)(O)OC[C@H]1O[C@@H](n2cnc3c(N)ncnc32)[C@H](O)[C@@H]1OP(=O)(O)O (stereo in doubt) | > 99 µM |
| Cc1cc(Br)c(Nc2cc(Cl)cc(CC(=O)Nc3cncc4ccccc34)c2)c([N+](=O)[O-])c1 | 1.94 µM |
| Cc1c(N)cncc1NC(=O)Cc1cccc(C#N)c1 | 16.1 µM |
| COc1ccncc1NC(=O)Cc1cccc(Cl)c1 | 21.6 µM |
| N#CC1(CS(=O)(=O)N2Cc3ccc(Cl)cc3[C@H](C(=O)Nc3cncc4ccccc34)C2)CNC1 (stereo in doubt) | 0.0562 µM and 0.0849 µM |
| N#Cc1ccccc1NC(=O)[C@@H](c1ccccc1)N1Cc2ccccc2C1=O (stereo in doubt) | > 99.5 µM |
| O=C(Cc1cc(Cl)cc(-c2nnc[nH]2)c1)Nc1cncc2ccccc12 | 5.3 µM |
| CN(C)c1ccc(N(Cc2ccn[nH]2)C(=O)Cn2nnc3ccccc32)cc1 | 15.9 µM |

| Structure (SMILES) | IC50 |
| --- | --- |
| N#CC1(CS(=O)(=O)N2Cc3ccc(Cl)cc3C(C(=O)Nc3cncc4cccc(Cl)c34)C2)CC1 (stereo not given) | 0.259 µM |
| N#Cc1cc(CN2CCN(C(=O)CCl)CC2)c2ccccc2c1 | 4.61 µM |
| Cn1nc(C(C(=O)NCCc2cccc(F)c2)N(C(=O)c2ccco2)c2ccc(C(C)(C)C)cc2)c2ccccc21 (stereo not given) | > 99.5 µM |
| O=C(NCCc1cccc(F)c1)C(c1cccnc1)N(C(=O)c1cocn1)c1cn(Cc2ccccc2)cn1 (stereo not given) | 27.3 µM |
| CC(C)(C)c1ccc(N(C(=O)c2ccco2)C(C(=O)NCCc2cccc(F)c2)c2cc(=O)[nH]c3ccccc23)cc1 (stereo not given) | 2.28 µM |
| N#CC1(CS(=O)(=O)N2Cc3ccc(Cl)cc3C(C(=O)Nc3cncc4ccccc34)C2)CCOCC1 (stereo not given) | 0.0804 µM and 0.0971 µM and 0.17 µM |
| O=C(Nc1ccc(Cl)cc1)[C@@H](c1ccccc1)N1Cc2ccccc2C1=O (stereo in doubt) | > 99.5 µM |
| NCc1cn(CC(=O)N(Cc2cscn2)c2ccc(-c3ccccc3)nc2)nn1 | > 99.5 µM |
| CCN(CC)S(=O)(=O)c1ccc(S(=O)(=O)N2CCN(S(N)(=O)=O)CC2)cc1 | > 99.5 µM |
| O=S(=O)(Nc1ccccc1)c1cc2c(cc1OCc1ccccc1)OCO2 | 72.8 µM |
| Cc1ccn2cnnc2c1NC(=O)C1CCOc2ccc(Cl)cc21 (stereo not given) | > 99.5 µM |
| COC(=O)CN1Cc2ccc(Cl)cc2C(C(=O)Nc2cncc3ccccc23)C1 (stereo not given) | 1.55 µM |
| CC(C(=O)Nc1cccc2nccnc12)n1cnc2c(N)ncnc21 (stereo not given) | > 99.5 µM |
| COc1ccn2c(NC(=O)Cc3cccc(Cl)c3)cnc2c1 | > 99.5 µM |
| CNC(=O)CN1CC(C(=O)Nc2cncc3ccc(S(C)(=O)=O)cc23)c2cc(Cl)ccc2C1=O (stereo not given) | 0.33 µM |
| CCCCc1nc(-c2nccn2CCc2ccccn2)c[nH]1 | 21.7 µM |
| Cc1noc2ncc(CNc3ccc(-c4nnnn4C)cc3)cc12 | > 99.5 µM |
| N#CC1(CS(=O)(=O)N2Cc3ccc(Cl)cc3C3(CCN(c4cncc5ccc(OCCN6CCOCC6)cc45)C3=O)C2)CC1 (stereo not given) | 0.187 µM |
| CC(C)(C)c1ccc(N(C(=O)c2cocn2)C(C(=O)N2CCC(c3cccc(F)c3)CC2)c2cccnc2)cc1 (stereo not given) | 9.46 µM |
| Cc1ccncc1NC(=O)CN1C(=O)COc2ccc(Cl)cc21 | 59.9 µM |
| CC(C)(C)c1ccc(N(C(=O)c2cc(C3(O)COC3)on2)C(C(=O)NCCc2cccc(F)c2)c2cccnc2)cc1 (stereo not given) | 26.2 µM |
| O=C(Cc1cccc(Cl)c1)Nc1cncc2c(Cl)cccc12 | > 99.5 µM |
| C=CC(=O)N(c1ccc(C(C)(C)C)cc1)C(C(=O)NCC)c1cccnc1 (stereo not given) | 45.5 µM |
